Assay results taken from PMC7504435, “Combined Protein- and Ligand-Observed NMR Workflow to Screen Fragment Cocktails against Multiple Proteins: A Case Study Using Bromodomains” (Molecules, 2020).

Experiments:
Format in all cases: binding
BPTF bromodomain = BPTF bromodomain (Homo sapiens, UniProt Q12830); assay: 1H CPMG NMR deconvolution of hit mixtures, BPTF; set-up: deconvolution of the hit mixtures using the non-fluorine-labeled bromodomains; made in house; host or cells: E. coli BL21(DE3); conditions: 10 µM protein, 100 µM ligand
Method: (§1) The second step is a ^1H CPMG NMR deconvolution of the hit mixtures using the non-fluorine-labeled bromodomains. ^1H CPMG NMR employs a T2 filter to take advantage of the difference in transverse relaxation time between protein and small molecules to filter out the bound-state ligand(s). Unlike the PrOF NMR assay, a single protein is assayed in each experiment. A binding event is characterized by a decrease in ligand resonance intensity from the ligand alone spectrum to the ligand + protein spectrum. A hit is defined as a decrease in resonance intensity ≥ 20%. The ^1H CPMG NMR assay can be tuned by changing the protein or ligand concentration, filter length (Figure 1), or hit criteria depending on how stringent the desired hit rate is. The number of ^1H CPMG NMR deconvolution experiments is directly informed from the first step. If a mixture from the first step was only a hit for one protein, a single ^1H CPMG NMR deconvolution experiment is needed. If a mixture from the first step was a hit for both proteins, two separate ^1H CPMG NMR deconvolutions experiments are needed to determine the fragments that bind to each protein.
(§2) ^1H CPMG NMR. ^1H CPMG NMR screen data were acquired on Bruker Avance III HD 500 with the 5 mm Prodigy TCI cryoprobe inverse cryoprobe (^1H 2500:1 S/N). Competition ^1H CPMG NMR data were acquired on Bruker 700 MHz Avance with a CryoProbe 5 mm TXI (^1H S:N with H2O suppression (2mM sucrose) - 900:1) and excitation sculpting water suppression. Proteins were present at 10 µM in 50 mM phosphate, 100 mM NaCl, pH 7.4 in 100% D2O. In separate NMR tubes, a ^1H CPMG NMR pulse was applied to a 1) mixture of ligands (individual ligands present at 100 µM for the screen and 50 µM for competition experiments) and 2) ligands + protein. […] For the competition experiments, τ was increased to 4.0 ms.

PfGCN5 bromodomain [1] = target: T1, PfGCN5 bromodomain (Plasmodium falciparum, UniProt Q8IB67); assay: 1H CPMG NMR deconvolution of hit mixtures, PfGCN5; conditions: 10 µM protein, 100 µM ligand
Method: as §1, §2

PfGCN5 bromodomain [2] = target: T1, PfGCN5 bromodomain; assay: biochemical
Method: The screening workflow consists of two dependent steps: 1) a PrOF NMR screen of the 5FW-labeled proteins and a cocktail of 4–5 fragments in a single NMR tube; 2) a ^1H CPMG NMR binding assay to deconvolute the hit mixtures for each protein (Figure 1). In the first step, a dual-protein PrOF NMR spectrum was obtained in which 5FW-PfGCN5, 5FW-BPTF (~ 50 µM each) and mixtures of fragments (400 µM individual fragment) were present in the same NMR tube. […] Chemical shift perturbations indicating a ligand binding event were based on a prior cutoff of Δδ ≥ 0.030 ppm as the definition for a hit mixture. This cutoff was based on a statistical analysis of chemical shift perturbations from a prior BRD4 D1 fragment screen and are described further in the experimental section and in Table S2.
PrOF NMR. PrOF NMR spectra were obtained on a Bruker Avance III HD 500 with the 5 mm Prodigy TCI inverse cryoprobe (^19F S:N 2000:1). […] The DMSO concentration for all experiments was kept constant at 1%. […] For the PrOF NMR screen, 5FW-BPTF and 5FW-PfGCN5 (35–40 µM in 50 mM phosphate, 100 mM NaCl, pH 7.4) were tested with mixtures of 4–5 fragments, where each individual fragment was 400 µM. […] A 10 Hz line broadening was applied. Titrations were fit to Equation (2), where p is the protein concentration and L is the ligand concentration. (2) Δδ=Δδmax × (Kd+P+L ) − (((Kd + P + L )^2) − 4PL)/2P
A PrOF NMR binding event is characterized as a change in chemical shift (Δδ) from the protein-only spectrum to the protein + fragment mixture spectrum. We used a prior cutoff of Δδ ≥ 0.030 ppm as the definition of a hit mixture, based on a statistical analysis of chemical shift perturbations from a prior BRD4 D1 fragment screen.

T1 sequence (Q8IB67 entry or part of it): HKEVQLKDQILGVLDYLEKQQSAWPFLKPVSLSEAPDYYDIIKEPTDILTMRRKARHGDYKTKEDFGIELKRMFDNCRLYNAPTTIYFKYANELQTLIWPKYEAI

| Compound | BPTF CPMG % decrease (BPTF bromodomain) [%] | PfGCN5 CPMG % decrease (PfGCN5 bromodomain [1]) [%] | PrOF NMR titration with 5FW-PfGCN5, result in words (PfGCN5 bromodomain [2]) |
| --- | --- | --- | --- |
| CC(C)(C)NC(=O)c1cnc2n(c1=O)CCS2 [Fragment F0550-0006] | 63 | – | – |
| c1cc(OCC2CO2)ccc1OCC1CO1 (stereo not drawn) [Fragment F0777-0005] | 54 | – | – |
| O=C1CSCCN1 [Fragment F0848-0336] | 33 | – | – |
| Cc1nnc(SCC(=O)N2CCCCCC2)n(N)c1=O [Fragment F1847-0012] | 36 | – | – |
| CCOCCCNc1ncnc2c1cnn2C [Fragment F1852-0063] | 38 | – | – |
| C=CCNC1CCN(C)C1=O (stereo not drawn) [Fragment F1905-0298] | 46 | – | – |
| C1CC2NCCOC2C1.Cl (stereo not drawn) [Fragment F1905-0651] | 75 | – | – |
| CC(C)(C)OC(=O)N1CCC2CNCC21 (stereo not drawn) [Fragment F1905-6593] | – | 21 | – |
| O=C1CCCC2CN(Cc3ccccc3)CC12 (stereo not drawn) [Fragment F1905-6609] | – | 50 | – |
| CC12CCC3(C)OCC(CO)(CO1)N23 (stereo not drawn) [Fragment F1983-0015] | – | 50 | – |
| Cc1nnc(CN)o1.Cl [Fragment F2135-1033] | 23 | – | – |
| Cc1cc(C)n(CC2CCNCC2)n1.Cl.Cl [Fragment F2145-0759] | 29 | – | – |
| CC(C)C1NC(=O)CNC1=O (stereo not drawn) [Fragment F2147-0955] | – | 50 | – |
| CC(=O)NCC1COCCN1.CC(=O)NCC1COCCN1.Cl.Cl.Cl (stereo not drawn) [Fragment F2147-1723] | 23 | – | – |
| CC(C)(C)OC(=O)N1CCCC(C(=O)O)C1 (stereo not drawn) [Fragment F2158-1186] | 29 | – | – |
| Cc1csc(NC(=O)C2CCNCC2)n1.Cl [Fragment F2158-1471] | 40 | – | – |
| Cc1onc(N)c1S(=O)(=O)N1CCC(C)CC1 [Fragment F2158-1788] | – | 40 | – |
| CC(C)(C)OC(=O)N1CC(Oc2ncccn2)C1 [Fragment F2158-1792] | 54 | 68 | – |
| Cc1c(C(=O)O)n[nH]c1C1CC1 [Fragment F2185-0055] | 31 | 29 | – |
| Cc1ccc(C)c(S(=O)(=O)N2CCCC2C(=O)O)c1 (stereo not drawn) [Fragment F2189-0042] | 35 | 32 | – |
| CC(C)Nc1nc2c(c(=O)[nH]c(=O)n2C)n1CC(O)CO (stereo not drawn) [Fragment F2477-0016] | 34 | – | – |
| CCCSc1nnc2[nH]c(=O)c(C)c(C)n12 [Fragment F2513-0609] | 46 | – | – |
| CCCCC(=O)Nc1sc(C)c(C)c1C(N)=O [Fragment F2590-0203] | 53 | – | – |
| CCCCSc1nnc(-c2cn(C)nc2OC)n1CC [Fragment F5003-0140] | 52 | 36 | – |
| CCC(C)Sc1nnc(-c2cn(C)nc2OC)n1CC (stereo not drawn) [Fragment F5003-0141] | 52 | 36 | – |
| Cc1nnc(C2CCN(C(=O)c3ccsc3)CC2)s1 [Fragment F5496-0578] | 55 | 83 | – |
| Cc1nc(NCCNC(=O)C(C)C)cc(N2CCCC2)n1 [Fragment F5626-0027] | 77 | 75 | – |

| Compound | BPTF CPMG % decrease (BPTF bromodomain) [%] | PfGCN5 CPMG % decrease (PfGCN5 bromodomain [1]) [%] | PrOF NMR titration with 5FW-PfGCN5, result in words (PfGCN5 bromodomain [2]) |
| --- | --- | --- | --- |
| CCNc1cc(NCCNC(=O)CC(C)C)nc(C)n1 [Fragment F5626-0058] | 50 | 47 | – |
| CSCCC(C)(O)CNC(=O)NC1CCOCC1 (stereo not drawn) [Fragment F6089-9820] | 23 | – | – |
| COC(CNC(=O)C1CN(C(=O)c2cc(C)on2)C1)OC [Fragment F6125-0675] | 32 | – | – |
| O=C(NCCC(O)C1CC1)Nc1ccccc1Cl (stereo not drawn) [Fragment F6190-0472] | 36 | – | – |
| CC(C)(C)C(O)CCNC(=O)COc1ccc(F)cc1 (stereo not drawn) [Fragment F6190-0594] | 48 | – | – |
| CS(=O)(=O)NCC(c1ccoc1)N1CCSCC1 (stereo not drawn) [Fragment F6353-5787] | – | 40 | – |
| O=C1NCCN1C(=O)NCC(c1ccsc1)N1CCC1 (stereo not drawn) [Fragment F6353-7315] | 23 | – | – |
| COCC(=O)NC(C)Cc1ccc2c(c1)CCO2 (stereo not drawn) [Fragment F6356-0896] | – | 25 | – |
| Cc1nc(N2CCCC2)nc(C)c1NS(C)(=O)=O [Fragment F6438-0300] | – | 42 | – |
| CCC(=O)NCc1nc(C)cc(N2CCOCC2)n1 [Fragment F6438-0864] | – | 67 | – |
| CC(C)CC(=O)NCc1nccc(N(C)C)n1 [Fragment F6438-1301] | – | 50 | – |
| CC(C)C(=O)N1CCN(c2cnnc(N(C)C)c2)CC1 [Fragment F6438-1468] | 62 | 100 | – |
| CC(C)CS(=O)(=O)C1CN(S(=O)(=O)C(C)C)C1 [Fragment F6442-1971] | – | 22 | – |
| CCCCS(=O)(=O)N1CC(S(=O)(=O)CC(C)C)C1 [Fragment F6442-1973] | – | 26 | – |
| COc1ccccc1C(CNC(=O)C1CC1)OC (stereo not drawn) [Fragment F6451-0004] | – | 26 | – |
| COC(C)(CNS(C)(=O)=O)c1cccc(Cl)c1 (stereo not drawn) [Fragment F6452-1288] | 32 | 57 | – |
| COc1ccc(C2CCCCN(S(C)(=O)=O)C2)cc1 (stereo not drawn) [Fragment F6464-1254] | 69 | 33 | – |
| Cc1cc(C(=O)N2CC(N3C(=O)CSC3=O)C2)n(C)n1 [Fragment F6473-4843] | – | 25 | – |
| CC(C)(C)C(=O)N1CCSC(c2ccccc2)CC1 (stereo not drawn) [Fragment F6481-0067] | – | 53 | – |
| O=C(C1CC1)N1CCCC(Cc2nc(C3CC3)no2)C1 (stereo not drawn) [Fragment F6497-0456] | 100 | 100 | – |
| CC(C(=O)NCc1cnn2c1CCCC2)n1cccn1 (stereo not drawn) [Fragment F6513-5793] | 72 | 49 | – |
| O=C(C1CC=CCC1)N1CCC(c2ccc3c(c2)OCO3)C1 (stereo not drawn) [Fragment F6518-4331] | – | 58 | – |
| OCC1CCCN1c1cccc(C(F)(F)F)n1 (stereo not drawn) [Fragment F6541-4533] | 48 | – | – |
| Cc1ccc(S(=O)(=O)O)cc1.N#CC1CNCCO1 [Fragment F8880-7458] | – | 24 | – |
| COCCCn1c(C(=O)O)cc2c(=O)n(C)c(=O)n(C)c21 [Fragment F9995-1074] | – | 41 | – |
| CCOC(=O)Nc1cc(-c2ccc(C)c(NS(C)(=O)=O)c2)nn2c(C)nnc12 [bromosporine, reference compound] | – | – | slow exchange kinetics |
